Pest or weed control and plant injury data for two molecules are collected here from US12077503B2, “Substituted cyclic amides and their use as herbicides” (FMC CORPORATION, priority 2015, dated 2024).

Type in all cases: in vivo
Test [1] deals with giant foxtail (Setaria faberii). Description: Test A preemergence. Particulars: Setaria faberi, pre-emergence, 240 h; for pest or weed control at 125 g/ha: 125 g ai/ha; for pest or weed control at 500 g/ha: 500 g ai/ha. A digest of the protocol: (§1)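 Greenhouse, ~10 d after spray; visual injury vs untreated controls, 0 = no effect, 100 = complete control. Preemergence: directed soil spray over planted seeds. Postemergence: plants 2–10 cm, 1–2 leaf stage. Loam/sand blend. Compound in non-phytotoxic solvent with surfactant.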

The subject of test [2] is Galium (catchweed bedstraw, Galium aparine). In words: Test A postemergence. To be noted: Galium, post-emergence, 240 h, postemergence; for pest or weed control at 125 g/ha: 125 g ai/ha. A digest of the protocol: as §1
Another test relates to Kochia (Kochia scoparia). Description: Test A postemergence. Particulars: Bassia scoparia, post-emergence, 240 h, postemergence; for pest or weed control at 125 g/ha: 125 g ai/ha. A digest of the protocol:
as §1

The test system of test [3] is barnyardgrass (Echinochloa crus-galli). In words: Test A postemergence. Particulars: Echinochloa crus-galli, post-emergence, 240 h, postemergence; for pest or weed control at 125 g/ha: 125 g ai/ha. Put shortly:
as §1

The subject of test [4] is blackgrass (Alopecurus myosuroides). In words: Test A postemergence. Particulars: Alopecurus myosuroides, post-emergence, 240 h, postemergence; for pest or weed control at 125 g/ha: 125 g ai/ha. A digest of the protocol: as §1
In another test the test system is corn (Zea mays). Description: Test A postemergence. To be noted: Zea mays, post-emergence, 240 h, postemergence; for plant injury at 125 g/ha: 125 g ai/ha. Put shortly: as §1
Test [5] deals with giant foxtail (Setaria faberii). Description: Test A postemergence. To be noted: Setaria faberi, post-emergence, 240 h, postemergence; for pest or weed control at 125 g/ha: 125 g ai/ha. A digest of the protocol:
as §1

In test [6] the test system is pigweed (Amaranthus retroflexus). Description: Test A postemergence. Particulars: Amaranthus retroflexus, post-emergence, 240 h, postemergence; for pest or weed control at 125 g/ha: 125 g ai/ha. A digest of the protocol: as §1
Test [7] relates to ragweed (common ragweed, Ambrosia elatior). Description: Test A postemergence. To be noted: Ambrosia artemisiifolia, post-emergence, 240 h, postemergence; for pest or weed control at 125 g/ha: 125 g ai/ha. Put shortly:
as §1

In test [8] the test system is ryegrass, Italian (Italian ryegrass, Lolium multiflorum). In words: Test A postemergence. To be noted: Lolium multiflorum, post-emergence, 240 h, postemergence; for pest or weed control at 125 g/ha: 125 g ai/ha. Put shortly:
as §1

In test [9] the test system is wheat (Triticum aestivum). In words: Test A postemergence. To be noted: Triticum aestivum, post-emergence, 240 h, postemergence; for plant injury at 125 g/ha: 125 g ai/ha. A digest of the protocol:
as §1

Test [10] has as its system barnyardgrass (Echinochloa crus-galli). In words: Test B flooded paddy test. Particulars: Echinochloa crus-galli, Flood, 250 g ai/ha, read-out: Barnyardgrass plant response rating. Put shortly:
(§2)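 Flooding to 3 cm over soil accompanied treatment, which consisted of adding compound to the standing water around 2-leaf plants; depth was then maintained. Visual assessment versus controls followed at 13 to 15 d (scale 0–100, 0 meaning no effect).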

The subject of test [11] is ducksalad (Heteranthera limosa). Description: Test B flooded paddy test. Particulars: Heteranthera limosa, Flood, 250 g ai/ha, read-out: Ducksalad plant response rating. A digest of the protocol: as §2
The subject of the next test is rice (Oryra sativa). Description: Test B flooded paddy test. To be noted: Oryza sativa, Flood, 250 g ai/ha, read-out: Rice plant response rating. A digest of the protocol: as §2
Test [12] has as its system sedge, umbrella (small-flower umbrella sedge, Cyperus difformis). In words: Test B flooded paddy test. Particulars: Cyperus difformis, Flood, 250 g ai/ha, read-out: Sedge, Umbrella plant response rating. A digest of the protocol: as §2
[13] abbreviates: preemergence, 0 to 100 scale where 0 is no effect and 100 is complete control, read-out: Foxtail, Giant plant response rating.
Setting [14] is: scale of 0 to 100 where 0 is no effect and 100 is complete control.
[15] abbreviates: 0 to 100 scale where 0 is no effect and 100 is complete control.

Like-named read-outs stand apart in the source and are kept apart here.

As for `COc1cc([C@H]2CN(C)C(=O)[C@@H]2C(=O)Nc2cccc(F)c2F)cc(C(F)(F)F)c1` [Compound 856], the pest or weed control at 125 g/ha in [1] (setting [13]) was found to be 90%; in test [2] (visual injury rating after approximately 10 d, read-out: Galium plant response rating (0 to 100 scale, 0 no effect, 100 complete control)), 40%; in the test on Kochia (Kochia scoparia) (visual injury rating after approximately 10 d, read-out: Kochia plant response rating (0 to 100 scale, 0 no effect, 100 complete control)), 30%; in test [3] (visual injury rating after approximately 10 d, read-out: Barnyardgrass plant response rating (0 to 100 scale, 0 no effect, 100 complete control)), 80%; in test [4] (visual injury rating after approximately 10 d, read-out: Blackgrass plant response rating (0 to 100 scale, 0 no effect, 100 complete control)) it was 60%; in test [5] (visual injury rating after approximately 10 d, read-out: Foxtail, Giant plant response rating (0 to 100 scale, 0 no effect, 100 complete control)), 90%. Besides, the pest or weed control at 125 g/ha worked out at 20% in test [6] (visual injury rating after approximately 10 d, read-out: Pigweed plant response rating (0 to 100 scale, 0 no effect, 100 complete control)); 0% in test [7] (visual injury rating after approximately 10 d, read-out: Ragweed plant response rating (0 to 100 scale, 0 no effect, 100 complete control)); 40% in test [8] (visual injury rating after approximately 10 d, read-out: Ryegrass, Italian plant response rating (0 to 100 scale, 0 no effect, 100 complete control)). Moreover, in [1] (Preemergence, visual injury vs untreated controls after approximately 10 d, read-out: Foxtail, Giant plant response rating (0 to 100 scale where 0 is no effect and 100 is complete control)), the pest or weed control at 500 g/ha is 90%. The plant injury at 125 g/ha amounted to 80% with corn (Zea mays) (visual injury rating after approximately 10 d, read-out: Corn plant response rating (0 to 100 scale, 0 no effect, 100 complete control)) and 50% in test [9] (visual injury rating after approximately 10 d, read-out: Wheat plant response rating (0 to 100 scale, 0 no effect, 100 complete control)). The pest or weed control at 250 g/ha in test [10] (setting [14]) came out at 50%; in [11] (setting [14]), 75%; in the test with rice (Oryra sativa) (setting [14]) it was 0%; in [12] (setting [14]), 0%.

As for `CCc1cc([C@H]2CN(C)C(=O)[C@@H]2C(=O)Nc2ccccc2F)cs1` [Compound 1156], the pest or weed control at 125 g/ha was 90% in test [1] (preemergence, 0 to 100 scale where 0 is no effect and 100 is complete control, approx. 10 d, read-out: Foxtail, Giant plant response rating); 40% in test [2] (visual injury vs untreated controls after approx. 10 d, 0 = no effect, 100 = complete control, read-out: Galium plant response rating (0 to 100 scale)); 0% in the test on Kochia (Kochia scoparia) (visual injury vs untreated controls after approx. 10 d, 0 = no effect, 100 = complete control, read-out: Kochia plant response rating (0 to 100 scale)); 90% in [3] (visual injury vs untreated controls after approx. 10 d, 0 = no effect, 100 = complete control, read-out: Barnyardgrass plant response rating (0 to 100 scale)); 0% in test [4] (visual injury vs untreated controls after approx. 10 d, 0 = no effect, 100 = complete control, read-out: Blackgrass plant response rating (0 to 100 scale)); 90% in test [5] (visual injury vs untreated controls after approx. 10 d, 0 = no effect, 100 = complete control, read-out: Foxtail, Giant plant response rating (0 to 100 scale)). Moreover, the pest or weed control at 125 g/ha in test [6] (visual injury vs untreated controls after approx. 10 d, 0 = no effect, 100 = complete control, read-out: Pigweed plant response rating (0 to 100 scale)) came to 0%; in test [7] (visual injury vs untreated controls after approx. 10 d, 0 = no effect, 100 = complete control, read-out: Ragweed plant response rating (0 to 100 scale)), 0%; in test [8] (visual injury vs untreated controls after approx. 10 d, 0 = no effect, 100 = complete control, read-out: Ryegrass, Italian plant response rating (0 to 100 scale)), 20%. The pest or weed control at 500 g/ha in [1] (setting [13]) turned out to be 100%; in test [2] (500 g ai/ha, 0 to 100 scale, 0 is no effect, 100 is complete control, read-out: Galium plant response rating) it was 50%; with Kochia (Kochia scoparia) (500 g ai/ha, 0 to 100 scale, 0 is no effect, 100 is complete control, read-out: Kochia plant response rating), 20%; in test [3] (500 g ai/ha, 0 to 100 scale, 0 is no effect, 100 is complete control, read-out: Barnyardgrass plant response rating), 90%; in test [4] (500 g ai/ha, 0 to 100 scale, 0 is no effect, 100 is complete control, read-out: Blackgrass plant response rating), 40%; in test [5] (500 g ai/ha, 0 to 100 scale, 0 is no effect, 100 is complete control, read-out: Foxtail, Giant plant response rating) it was 90%. Besides, the pest or weed control at 500 g/ha turned out to be 0% in [6] (500 g ai/ha, 0 to 100 scale, 0 is no effect, 100 is complete control, read-out: Pigweed plant response rating); 0% in test [7] (500 g ai/ha, 0 to 100 scale, 0 is no effect, 100 is complete control, read-out: Ragweed plant response rating); 30% in [8] (500 g ai/ha, 0 to 100 scale, 0 is no effect, 100 is complete control, read-out: Ryegrass, Italian plant response rating). Also, the plant injury at 125 g/ha in the test with corn (Zea mays) (visual injury vs untreated controls after approx. 10 d, 0 = no effect, 100 = complete control, read-out: Corn plant response rating (0 to 100 scale)) came out at 20%; in test [9] (visual injury vs untreated controls after approx. 10 d, 0 = no effect, 100 = complete control, read-out: Wheat plant response rating (0 to 100 scale)) it was 20%. Moreover, the plant injury at 500 g/ha came to 60% in the test on corn (Zea mays) (500 g ai/ha, 0 to 100 scale, 0 is no effect, 100 is complete control, read-out: Corn plant response rating) and 50% in test [9] (500 g ai/ha, 0 to 100 scale, 0 is no effect, 100 is complete control, read-out: Wheat plant response rating). The pest or weed control at 250 g/ha in test [10] (setting [15]) was found to be 40%; in test [11] (setting [15]), 100%; in the test with rice (Oryra sativa) (setting [15]) it was 20%; in test [12] (setting [15]), 0%.
